From US20150025085A1, “Iron Chelators And Uses Thereof” (Varinel Inc., priority 2012, published 2015)
Like-named read-outs stand apart in the source and are kept apart here.

Assays:
[1] = system: clinical isolates of bacterial strains of A. baumannii; test: MIC by CLSI microdilution in CAMHB media; type: cell-based; conditions: Acinetobacter baumannii, 24 h
Procedure: (§1) The minimal inhibitory concentration (MIC) of compound 4 was determined against standard strains of MDR bacteria and clinical isolates according to the guidelines of the Clinical and Laboratory Standards Institute (CLSI).
Individual MICs were determined following the microdilution method recommended by CLSI in cationic-adjusted Mueller-Hinton Broth (CAMHB), or M9 media. The MIC was defined as the lowest drug concentration that caused 100% inhibition of visible bacterial growth after 24 hours incubation. Tests were performed in triplicate. MIC of Compound 4 were determined for nosocomial ESKAPE pathogens (Enterococcus faecium, Staphylococcus aureus, Klebsiella pneumoniae, Acinetobacter baumannii, Pseudomonas aeruginosa, and Enterobacter species).
(§2) Tables l and 2 show the MIC of compound 4 determined in two different media for clinical isolates of bacterial strains of A. baumannii (AB) obtained from the Multidrug-resistant Organism Repository & Surveillance Network, USA.

[2] = system: clinical isolates of bacterial strains of A. baumannii; test: MIC by CLSI microdilution in RPMI 1640 (low iron) media; type: cell-based, Acinetobacter baumannii; parameters: key to MIC of compound 4: NG = no growth; conditions: for MIC: Acinetobacter baumannii
Procedure: as §1
[…] The MIC was defined as the lowest drug concentration that caused 100% inhibition of visible bacterial growth after 24 hours incubation. Tests were performed in triplicate. MIC of Compound 4 were determined for nosocomial ESKAPE pathogens (Enterococcus faecium, Staphylococcus aureus, Klebsiella pneumoniae, Acinetobacter baumannii, Pseudomonas aeruginosa, and Enterobacter species).
as §2

A. baumannii strain 5711 = test: Growth curves (OD600) in CAMHB medium; type: cell-based, Acinetobacter baumannii; conditions: various concentrations, dose-responsive
Text: (§3) It should be noted that the inhibition occurred in a dose-responsive manner.

[3] = Stability in aqueous solution; type: physicochemical
Text: as §3

bacterial infections = conditions: described in PCT/US2012/023377 (WO 2012/106364); cited from earlier work
[4] = prior publications (WO 00/74664; WO 2004/041151); cited from earlier work
6-OHDA lesioned rats = conditions: cited from earlier work; for activity (neuroprotection) against 6-OHDA in an animal model of Parkinson's disease: prior publications, Ben Shachar et al. 2004
[5] = system: lactacystin-lesioned mice; conditions: 5 mg/kg once a day i.p., 7 days before or after lactacystin microinjection; Zhu et al. 2007; cited from earlier work
[6] = strain AB3638, read-out: MIC of compound 4
[7] = strain AB3785, read-out: MIC of compound 4
[8] = strain AB3806, read-out: MIC of compound 4
[9] = strain AB3917, read-out: MIC of compound 4
[10] = strain AB4025, read-out: MIC of compound 4
[11] = strain AB4026, read-out: MIC of compound 4
[12] = strain AB4027, read-out: MIC of compound 4
[13] = strain AB4052, read-out: MIC of compound 4
[14] = strain AB4269, read-out: MIC of compound 4
[15] = strain AB4448, read-out: MIC of compound 4
[16] = strain AB4456, read-out: MIC of compound 4
[17] = strain AB4490, read-out: MIC of compound 4
[18] = strain AB4498, read-out: MIC of compound 4
[19] = strain AB4795, read-out: MIC of compound 4
[20] = strain AB4857, read-out: MIC of compound 4
[21] = strain AB4878, read-out: MIC of compound 4
[22] = strain AB4932, read-out: MIC of compound 4
[23] = strain AB4957, read-out: MIC of compound 4
[24] = strain AB4991, read-out: MIC of compound 4
[25] = strain AB5001, read-out: MIC of compound 4
[26] = strain AB5075, read-out: MIC of compound 4
[27] = strain AB5197, read-out: MIC of compound 4
[28] = strain AB5256, read-out: MIC of compound 4
[29] = strain AB5674, read-out: MIC of compound 4
[30] = strain AB5711, read-out: MIC of compound 4
[31] = rats, Ben Shachar et al., Neuropharmacology 46 (2004) 254-263

`OCCN1CCN(CCc2ccc(O)c3ncccc23)CC1` [Compound 4, 5-(2-(4-(2-hydroxyethyl)piperazin-1-yl)ethyl)-8-quinolinol] showed an MIC ([1]; strain AB967, read-out: MIC of compound 4) of 500 µg/mL, an MIC ([1]; strain AB2828, read-out: MIC of compound 4) of 500 µg/mL and an MIC ([1]; strain AB3340, read-out: MIC of compound 4) of 500 µg/mL. The MIC ([1]; strain AB3560, read-out: MIC of compound 4) was 500 µg/mL, the MIC [1, 6] was 500 µg/mL and the MIC [1, 7] was 500 µg/mL. For the same compound, the MIC [1, 8] was 1000 µg/mL, the MIC [1, 9] was 500 µg/mL and the MIC ([1]; strain AB3927, read-out: MIC of compound 4) was 500 µg/mL. For the same compound, the MIC [1, 10] was 500 µg/mL, the MIC [1, 11] was 500 µg/mL and the MIC [1, 12] was 500 µg/mL. It also gave an MIC [1, 13] of 1000 µg/mL, an MIC [1, 14] of 500 µg/mL and an MIC [1, 15] of 500 µg/mL. It also gave an MIC [1, 16] of 500 µg/mL, an MIC [1, 17] of 500 µg/mL and an MIC [1, 18] of 500 µg/mL. It also gave an MIC [1, 19] of 500 µg/mL, an MIC [1, 20] of 500 µg/mL and an MIC [1, 21] of 500 µg/mL. It also gave an MIC [1, 22] of 500 µg/mL, an MIC [1, 23] of 500 µg/mL and an MIC [1, 24] of 500 µg/mL. It also gave an MIC [1, 25] of 500 µg/mL, an MIC [1, 26] of 500 µg/mL and an MIC [1, 27] of 500 µg/mL. For the same compound, the MIC [1, 28] was 500 µg/mL, the MIC [1, 29] was 500 µg/mL and the MIC [1, 30] was 500 µg/mL. For the same compound, the MIC [2, 6] was 64 µg/mL, the MIC [2, 7] was 32 µg/mL and the MIC [2, 8] was 32 µg/mL. It also gave an MIC [2, 9] of 32 µg/mL, an MIC [2, 10] of 32 µg/mL and an MIC [2, 11] of 32 µg/mL. It also gave an MIC [2, 12] of 32 µg/mL, an MIC [2, 13] of 64 µg/mL and an MIC [2, 14] of 32 µg/mL. The MIC [2, 15] was 64 µg/mL, the MIC [2, 16] was 32 µg/mL and the MIC [2, 17] was 32 µg/mL. For the same compound, the MIC [2, 18] was 64 µg/mL, the MIC [2, 19] was 32 µg/mL and the MIC [2, 20] was 64 µg/mL. For the same compound, the MIC [2, 21] was 64 µg/mL, the MIC [2, 22] was 125 µg/mL and the MIC [2, 23] was 125 µg/mL. It also gave an MIC [2, 24] of 8 µg/mL, an MIC [2, 25] of 32 µg/mL and an MIC [2, 26] of 64 µg/mL. It also gave an MIC [2, 27] of 32 µg/mL, an MIC [2, 28] of 125 µg/mL and an MIC [2, 29] of 32 µg/mL. For the same compound, the MIC [2, 30] was 64 µg/mL, the “MIC of compound 4” value ([2]; strain AB967) was “NG” and the “MIC of compound 4” value ([2]; strain AB2828) was “NG”. For the same compound, the “MIC of compound 4” value ([2]; strain AB3340) was “NG”, the “MIC of compound 4” value ([2]; strain AB3560) was “NG” and the “MIC of compound 4” value ([2]; strain AB3927) was “NG”. The “OD600 in growth curves (inhibition of growth)” value (A. baumannii strain 5711) was “dramatically reduced”, the “stability in aqueous solution” value [3] was “highly stable” and the antibacterial activity (bacterial infections) was “antibacterial activity”.

In the case of `C#CCN(C)Cc1ccc(O)c2ncccc12` [M30], the “ability to cross the BBB” value [4] is listed as “able to cross the BBB” and the “activity (neuroprotection) against 6-OHDA in an animal model of Parkinson's disease” value (shortened to “activity (neuroprotection)”) (6-OHDA lesioned rats) is listed as “active”.

For `OCCN1CCN(Cc2ccc(O)c3ncccc23)CC1` [VK28, 5-[4-(2-hydroxyethyl)piperazin-1-ylmethyl]-8-hydroxyquinoline], the antibacterial activity (bacterial infections) is listed as “antibacterial activity”, the “ability to cross the BBB” value [4] is listed as “able to cross the BBB” and the “activity (neuroprotection)” value (6-OHDA lesioned rats) is listed as “active”. For the same compound, the “activity (neuroprotection)” value (6-OHDA lesioned rats; listed as Vk-28) was “neuroprotection”, the “basal striatal tissue monoamine concentrations” value (6-OHDA lesioned rats; [31]) was “no effect” and the “striatal 5-HT, 5-HIAA and NE concentrations” value (6-OHDA lesioned rats; [31]) was “not be affected”. The behavioral performances [5] was “significantly improved”, the “lactacystin-induced DA neuron loss in SN” value [5] was “attenuated” and the “lactacystin-induced iron accumulation in SN” value [5] was “attenuated”. For the same compound, the “lactacystin-induced microglial activation in SN” value [5] was “attenuated” and the “lactacystin-induced proteasomal inhibition in SN” value [5] was “attenuated”.
